The subject of one assay is partial onset seizures. Put plainly: placebo controlled, add on trials in partial onset seizures. In kind it is in vivo. The note with it: adults and children with partial onset seizures. The source says: There is also known enhancement of GABA activity in the brain along with reduced glutamate receptor activity. Accordingly, compounds of formula I are useful in the treatment of autism.

For assay [1], the system named is simple and complex partial seizures and secondarily generalized seizures. The note with it: clinical trials of human epilepsy; adjunctive therapy or monotherapy; cited from earlier work.
For the next assay, the system named is seizures. The settings on record: several rodent models of epilepsy; cited from earlier work.
For a further assay, the system named is kindled epilepsy. The note with it: animal model of kindled epilepsy; cited from earlier work.

As for `CC1(C)O[C@@H]2[C@@H](CO[C@@]3(COS(N)(=O)=O)OC(C)(C)O[C@@H]23)O1` [topiramate, 2,3:4,5-bis-O-(1-methylethylidene)-β-D-fructopyranose sulfamate], the “reduction of seizure rate versus placebo” value in the assay on partial onset seizures is “statistically significant reduction of seizure rate”. Also, the “efficacy in treating simple and complex partial seizures and secondarily generalized seizures” value in assay [1] is given as “effective”. Moreover, the block of seizures result with seizures and in the assay with kindled epilepsy was “effectively block seizures” throughout.

These data come from patent US6552000B2, “Anticonvulsant derivatives useful in treating autism” (Ortho-McNeil Pharmaceutical, Inc., priority 1999, dated 2003).
